Legend:
MOR = target: T1, MOR (Homo sapiens, UniProt P35372); assay: Radioligand binding assay, [3H] DAMGO; settings: [3H] DAMGO 0.5 nM
T1 construct: expressed in transfected cells; host or cells: HEK293 cell membranes
Protocol: (§1) Radioligand binding assays were conducted using MicroBeta2 (PerkinElmer, USA). Membrane protein preparations MOR and M3R were each prepared at a concentration of 2.5 µg/well. The radio ligands [^3H] DAMGO (specific for MOR) and [^3H]-NMS (specific for M3R) were prepared at concentrations of 0.5 nM and 0.2 nM, respectively. […] For each well, 1 µL of the serially diluted test compounds was transferred, followed by the addition of 100 µL of membrane stock solution and 100 µL of radioligand. The plates were sealed and shaken at 300 rpm at room temperature for one hour. Upon completion of the binding assay, the contents of each well were filtered through Unifilter-96 GF/C filter plates (PerkinElmer, USA). The filter plates were dried for one hour at 50°C and sealed. The trapped ^3H (tritium) on the filters was then quantified using the MicroBeta2. The percentage of inhibition or binding was subsequently calculated.

adrenergic receptor β2 = target: T2, adrenergic receptor β2 (Homo sapiens, UniProt P07550); assay: DMR desensitization assay, A431, probe isoprenaline; type: cell-based; settings: 100 μM DK
T2 construct: endogenous in cells; host or cells: A431
T2 sequence (P07550 whole entry): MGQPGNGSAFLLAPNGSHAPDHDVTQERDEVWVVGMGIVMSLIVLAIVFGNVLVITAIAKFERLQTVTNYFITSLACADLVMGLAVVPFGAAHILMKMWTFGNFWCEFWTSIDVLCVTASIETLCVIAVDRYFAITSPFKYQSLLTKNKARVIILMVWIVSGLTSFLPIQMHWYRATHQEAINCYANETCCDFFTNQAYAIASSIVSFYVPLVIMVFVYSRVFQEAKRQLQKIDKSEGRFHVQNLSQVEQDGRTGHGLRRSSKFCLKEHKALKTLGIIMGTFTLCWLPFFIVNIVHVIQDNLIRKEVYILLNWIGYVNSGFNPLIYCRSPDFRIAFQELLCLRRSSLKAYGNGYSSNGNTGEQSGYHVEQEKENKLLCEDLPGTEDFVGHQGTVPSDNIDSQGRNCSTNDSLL
Protocol: (§2) DMR assays were performed using an Epic® BT system (Corning, NY, USA). All used cell lines were directly seeded in Epic 384-well biosensor microplates with a seeding density of 25,000 cells per well. After being cultured for about 22 h, the cells formed a monolayer with a confluency of about 95 % in the cell culture medium. Then the cells were manually washed using assay buffer (1 × HBSS buffer, 10 mM HEPES, pH = 7.4) and maintained in 30 μL of the assay buffer for 1 h. All samples were dissolved in DMSO and diluted freshly with the assay buffer containing 0.1 % BSA.
The receptor selectivity was evaluated against a set of G protein-coupled receptors (GPCRs), including opioid receptor (Delta/Kappa/NOP), dopamine receptor (D1/D2), orphan receptor (GPR35), adrenergic receptor (α2A/β2), serotonin receptor (5HT2A), histamine receptor (H1) and cannabinoid receptor (CB1). Following a 1-hour pretreatment with DK, a 2-min baseline was established before introducing probes and monitoring DMR signals for another hour. The cells and probes were as follows: Delta, HEK293-Delta, SNC162; Kappa, HEK293-Kappa, ICI199441; NOP, HEK293-NOP, MCOPPB; D1, HEK293-D1, dopamine; D2, HEK293-D2, dopamine; GPR35, CHO-K1-hGPR35, zaprinast; 5HT2A, HEK293-5HT2A, 5-hydroxytryptamine; α2A, HEK293-α2A, L-Noradrenaline; β2, A431, isoprenaline; H1, A431, histamine; CB1, CHO-K1-CB1, CP 55940. […]

HEK293T cells = assay: Cytotoxicity assay (CCK-8), HEK293T; type: cell-based; settings: 24 h
Protocol: (§3) HEK293T, CHO, and HUVEC cell lines were cultured overnight in 96-well plates before exposure to compounds for 24 h. Cell viability was evaluated using the Cell Counting Kit-8 (CCK-8, Beyotime Biotechnology, China), and absorbance at 450 nm was measured with a microplate reader. Cell survival rates were calculated relative to control conditions.

M3R = target: T3, M3R (Homo sapiens, UniProt P20309); assay: Radioligand binding assay, [3H] NMS; settings: [3H] NMS 0.2 nM
T3 construct: expressed in transfected cells; host or cells: HEK293 cell membranes
T3 sequence (P20309 whole entry): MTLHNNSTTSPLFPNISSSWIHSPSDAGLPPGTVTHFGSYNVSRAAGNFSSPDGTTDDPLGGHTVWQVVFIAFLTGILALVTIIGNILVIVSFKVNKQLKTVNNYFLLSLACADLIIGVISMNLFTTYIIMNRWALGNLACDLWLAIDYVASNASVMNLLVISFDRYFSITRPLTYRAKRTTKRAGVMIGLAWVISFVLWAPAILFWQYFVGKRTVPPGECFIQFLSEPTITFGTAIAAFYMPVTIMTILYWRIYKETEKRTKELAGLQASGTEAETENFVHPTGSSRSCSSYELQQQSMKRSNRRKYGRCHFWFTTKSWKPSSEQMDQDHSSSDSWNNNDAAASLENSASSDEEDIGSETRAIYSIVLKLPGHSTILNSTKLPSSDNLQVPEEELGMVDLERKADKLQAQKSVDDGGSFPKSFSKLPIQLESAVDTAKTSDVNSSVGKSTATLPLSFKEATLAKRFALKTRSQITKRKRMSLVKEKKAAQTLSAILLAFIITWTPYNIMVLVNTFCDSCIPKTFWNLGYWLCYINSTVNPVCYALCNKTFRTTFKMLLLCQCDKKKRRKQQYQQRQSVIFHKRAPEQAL
Protocol: as §1

HEK293 cells = assay: DMR assay in untransfected HEK293 cells (background); type: cell-based; settings: HEK293 cells without MOR
Protocol: as §2
(§4) The DMR assays were conducted as follows. […] In the case of the DMR desensitization assay, cells were pretreated with analytes for one hour before introducing a specific agonist at the indicated concentration, and the agonist-induced DMR signals were monitored for one hour. Finally, for the DMR antagonist assay, cells underwent a 1-hour pretreatment with an antagonist before the addition of a specific agonist at the indicated concentration, and subsequent DMR signals were recorded over one hour.

M1R = target: T4, M1R (Homo sapiens, UniProt P11229); assay: FLIPR assay in CHO-M1 cells (carbachol-induced Ca2+); type: cell-based; settings: DK pretreatment one hour
T4 construct: expressed in transfected cells
T4 sequence (P11229 whole entry): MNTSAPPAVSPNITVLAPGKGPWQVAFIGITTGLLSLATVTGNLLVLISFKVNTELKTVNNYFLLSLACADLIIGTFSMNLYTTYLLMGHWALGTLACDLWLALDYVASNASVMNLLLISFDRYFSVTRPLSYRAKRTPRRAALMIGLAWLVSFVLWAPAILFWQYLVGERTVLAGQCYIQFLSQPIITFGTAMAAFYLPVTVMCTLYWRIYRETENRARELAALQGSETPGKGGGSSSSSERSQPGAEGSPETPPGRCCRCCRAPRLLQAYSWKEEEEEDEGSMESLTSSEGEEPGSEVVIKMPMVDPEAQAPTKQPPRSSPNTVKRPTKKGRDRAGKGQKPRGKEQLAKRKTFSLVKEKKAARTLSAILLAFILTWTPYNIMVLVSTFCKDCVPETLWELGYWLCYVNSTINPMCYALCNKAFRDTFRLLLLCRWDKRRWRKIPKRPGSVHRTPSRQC
Protocol: (§5) FLIPR assay was carried out as reported earlier. Cell lines were seeded in 96-well plates with black walls (Greiner, USA) at 8.0 × 10^4 cells per well. After approximately 22 h of incubation, the cells were exposed to Calcium-6 dye (Molecular Devices, USA) in HBSS buffer supplemented with 20 mM HEPES (pH 7.4) at 37°C for one hour. Samples, redissolved in DMSO and housed in 96-well drug plates, underwent dilution with FLIPR buffer and subsequent automated introduction to the cells. […] […] Results were presented as fluorescence (arbitrary units) plotted against time.

CHO cells = assay: Cytotoxicity assay (CCK-8), CHO; type: cell-based; settings: 24 h
Protocol: as §3

M5R = target: T5, M5R (Homo sapiens, UniProt P08912); assay: FLIPR assay in CHO-M5 cells (carbachol-induced Ca2+); type: cell-based; settings: DK pretreatment one hour
T5 construct: expressed in transfected cells
T5 sequence (P08912 whole entry): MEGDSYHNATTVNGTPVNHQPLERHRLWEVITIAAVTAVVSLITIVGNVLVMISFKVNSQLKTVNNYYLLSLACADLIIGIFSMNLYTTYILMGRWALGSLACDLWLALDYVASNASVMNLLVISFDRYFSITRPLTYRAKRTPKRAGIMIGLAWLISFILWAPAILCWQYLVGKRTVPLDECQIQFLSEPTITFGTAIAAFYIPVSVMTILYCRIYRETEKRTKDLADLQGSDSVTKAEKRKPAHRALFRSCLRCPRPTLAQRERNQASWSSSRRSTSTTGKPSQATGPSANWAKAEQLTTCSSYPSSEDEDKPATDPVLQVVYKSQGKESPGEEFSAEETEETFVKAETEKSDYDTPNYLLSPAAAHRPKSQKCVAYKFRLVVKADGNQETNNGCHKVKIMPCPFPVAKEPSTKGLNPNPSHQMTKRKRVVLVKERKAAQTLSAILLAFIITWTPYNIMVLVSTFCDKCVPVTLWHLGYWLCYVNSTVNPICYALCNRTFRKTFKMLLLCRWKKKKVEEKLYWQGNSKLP
Protocol: as §5

Delta opioid receptor = target: T6, Delta opioid receptor (Homo sapiens, UniProt P41143); assay: DMR agonist and desensitization assay in HEK293-Delta cells; type: cell-based
T6 construct: expressed in transfected cells; host or cells: HEK293-Delta
T6 sequence (P41143 whole entry): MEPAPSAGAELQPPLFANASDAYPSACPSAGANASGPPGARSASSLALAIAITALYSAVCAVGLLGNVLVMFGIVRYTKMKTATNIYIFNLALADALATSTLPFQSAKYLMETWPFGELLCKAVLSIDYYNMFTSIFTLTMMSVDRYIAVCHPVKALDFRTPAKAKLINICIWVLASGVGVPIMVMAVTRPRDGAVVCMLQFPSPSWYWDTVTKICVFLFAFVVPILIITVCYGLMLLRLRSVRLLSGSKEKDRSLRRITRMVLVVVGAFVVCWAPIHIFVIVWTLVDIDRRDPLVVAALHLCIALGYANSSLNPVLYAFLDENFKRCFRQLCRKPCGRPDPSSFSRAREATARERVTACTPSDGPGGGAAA
Protocol: as §2, §4
The receptor selectivity was evaluated against a set of G protein-coupled receptors (GPCRs), including opioid receptor (Delta/Kappa/NOP), dopamine receptor (D1/D2), orphan receptor (GPR35), adrenergic receptor (α2A/β2), serotonin receptor (5HT2A), histamine receptor (H1) and cannabinoid receptor (CB1). Following a 1-hour pretreatment with DK, a 2-min baseline was established before introducing probes and monitoring DMR signals for another hour. The cells and probes were as follows: Delta, HEK293-Delta, SNC162; Kappa, HEK293-Kappa, ICI199441; NOP, HEK293-NOP, MCOPPB; D1, HEK293-D1, dopamine; D2, HEK293-D2, dopamine; GPR35, CHO-K1-hGPR35, zaprinast; 5HT2A, HEK293-5HT2A, 5-hydroxytryptamine; α2A, HEK293-α2A, L-Noradrenaline; β2, A431, isoprenaline; H1, A431, histamine; CB1, CHO-K1-CB1, CP 55940. The other detailed process was the same as above.

mu opioid receptor (MOR) = target: T7, mu opioid receptor (MOR) (Homo sapiens, UniProt P35372); assay: FLIPR Ca2+ assay in HEK293T-Mu cells; type: cell-based
T7 construct: expressed in transfected cells; host or cells: HEK293T-Mu
T7 sequence (P35372 whole entry): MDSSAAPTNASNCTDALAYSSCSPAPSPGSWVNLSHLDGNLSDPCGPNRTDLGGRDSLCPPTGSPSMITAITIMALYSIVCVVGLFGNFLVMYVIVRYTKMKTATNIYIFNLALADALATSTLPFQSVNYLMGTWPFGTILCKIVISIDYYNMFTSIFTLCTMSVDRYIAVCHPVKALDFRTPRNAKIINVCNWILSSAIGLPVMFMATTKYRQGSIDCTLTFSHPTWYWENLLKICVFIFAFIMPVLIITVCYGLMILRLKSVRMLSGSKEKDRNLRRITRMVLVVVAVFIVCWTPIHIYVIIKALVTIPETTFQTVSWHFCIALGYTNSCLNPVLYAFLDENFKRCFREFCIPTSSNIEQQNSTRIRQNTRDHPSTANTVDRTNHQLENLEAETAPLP
Protocol: FLIPR assay was carried out as reported earlier. Cell lines were seeded in 96-well plates with black walls (Greiner, USA) at 8.0 × 10^4 cells per well. After approximately 22 h of incubation, the cells were exposed to Calcium-6 dye (Molecular Devices, USA) in HBSS buffer supplemented with 20 mM HEPES (pH 7.4) at 37°C for one hour. Samples, redissolved in DMSO and housed in 96-well drug plates, underwent dilution with FLIPR buffer and subsequent automated introduction to the cells. […] In FLIPR antagonist experiments, cells were pre-incubated with the compound for 10 min prior to introducing a specified concentration of agonist. Results were presented as fluorescence (arbitrary units) plotted against time.

T1 sequence (P35372 whole entry): as above

C=CC12CN(C)C3CC14c1ccccc1NC4C1CC2C3CO1 (stereo not drawn) [DK]
Ki (MOR): 0.0857 ± 0.0361 µM
efficacy (maximal inhibition of radioligand binding) (MOR): 100%
reduction of probe DMR response (desensitization) (adrenergic receptor β2): almost unable to reduce the response
cytotoxicity (cell viability) (HEK293T cells): had a little effect on HEK293T cells but not in a concentration-dependent manner
Ki (M3R): 55.2 ± 11 µM
efficacy (maximal inhibition of radioligand binding) (M3R): 74.6%
background DMR response (HEK293 cells): No background response
inhibition of carbachol-induced Ca2+ response (M1R): could not concentration-dependently inhibit
cytotoxicity (cell viability) (CHO cells): noncytotoxic
inhibition of carbachol-induced Ca2+ response (M5R): could not concentration-dependently inhibit
DMR agonist response (Delta opioid receptor; HEK293-Delta cells): unable to trigger a concentration-dependent DMR response
probe-induced DMR response after DK pretreatment (Delta opioid receptor; HEK293-Delta, 2.5 μM SNC162, pretreatment one hour): had little effect on the DMR response produced by the respective probes
antagonist effect at high concentration (decrease of probe DMR response) (Delta opioid receptor; HEK293-Delta, SNC162, high-concentration of DK): very weak antagonist effects
Ca2+ response after naloxone pretreatment (mu opioid receptor (MOR); 100 μM DK): significantly decreased by naloxone
maximum Ca2+ response compared with endomorphin-1 (mu opioid receptor (MOR); FLIPR): less than half of the maximum Ca^2+ response of endomorphin-1

Source: publication PMC12302426, “Dihydrokoumine, a dual-target analgesic with reduced side effects isolated from a traditional Chinese medicine” (Journal of Advanced Research, 2024)
